Laboratory results: patent US12370139B2 (TREEWAY TW001 B.V., priority 2017, dated 2025)
Read-outs that look alike come from different tables or passages of the source. Blank lines part the entries; values can stand above or below the compound they belong to.

Tests used:
[1] = Example 2: repeat of the Example 1 study, with edaravone metabolites in plasma; assay type: in vivo, human; conditions: for Edaravone plasma concentration: time Pre; for AUC(0-inf): extrapolated to infinity; for Ratio conjugate-to-parent drug (AUClast): ratio calculated using AUClast (h · μMol/L)
Text: The study described in Example 1 was repeated, again using 18 healthy male and female human subjects.

[2] = APP/PS1 Mice, oral 33.2 mg/kg/d; cited from earlier work
[3] = Example 1: single dose, randomized, two-period, cross-over pharmacokinetic study, oral solution vs i.v. infusion; assay type: in vivo, human; conditions: for Edaravone plasma concentration: time Pre
Method: A single dose, randomized, two-period, cross-over study was conducted in 18 healthy male and female human subjects.

[4] = male Wistar rats, cited from earlier work
[5] = rats, oral, dose of 27 mg/kg, suspended with 0.5% CMC-Na, compared to 100% for intravenous; cited from earlier work
APP/PS1 mice = conditions: cited from earlier work
[6] = SD rats, in comparison to intravenous administration; cited from earlier work
[7] = Dissolution rate of edaravone in water; assay type: physicochemical; conditions: in the presence of an alkalizing agent, especially at at least 0.3 grams edaravone per liter
Text: The oxides and hydroxides of alkaline metals are preferably selected from NaOH, KOH, LiOH and combinations thereof. The oxides and hydroxides of alkali-earth metals are preferably selected from Ca(OH)2, CaO, Mg(OH)2, MgO and combinations thereof. The salts of weak organic and weak inorganic acids are preferably selected from carbonate, bicarbonate, borate, carboxylate (e.g. lactate, citrate, acetate, formate and oxalate), phosphate, sulfate and combinations thereof. The alkaline amines are preferably selected from tris(hydroxymethyl)aminomethane, ethanolamine, diethanolamine, triethanolamine, N-methyl-glucamine, glucosamine, ethylenediamine, diethylamine, triethylamine, isopropylamine, diisopropylamine, ammonia and combinations thereof. The alkaline amino acids are preferably selected from arginine, histidine, lysine and combinations thereof.

[8] = both sexes, human, plasma, iv, Example 2, i.v. infusion 60 mg
[9] = both sexes, human, plasma, iv, Example 2, i.v. infusion (60 mg)
[10] = both sexes, human, plasma, Example 2, oral administration 140 mg
[11] = both sexes, human, plasma, Example 2, oral administration (140 mg)
[12] = i.v. infusion of edaravone 60 mg (n = 18)
[13] = oral administration of edaravone 140 mg (n = 18)

- Edaravone plasma concentration ([1]; Example 2, i.v. infusion (60 mg)): 0 ng/mL
- Edaravone plasma concentration ([1]; Example 2, oral administration (140 mg)): 0 ng/mL
- time at which peak maximum concentrations are reached after administration ([1]; Example 2, orally administered): about 14 min
- bioavailability ([1]; both sexes, human, plasma, 140 mg, Example 2, oral compared to i.v. infusion, read-out: systemic bioavailability (Fabs)): 93%
- AUC(0-t) [1, 8]: 1220 ng·h/mL
- Cmax [1, 8]: 943 ng/mL
- AUC(0-inf) [1, 8]: 1210 ng·h/mL
- concentration at 0.17 h [1, 9]: 373 ng/mL
- concentration at 0.5 hrs [1, 9]: 696 ng/mL
- concentration at 1 hrs [1, 9]: 943 ng/mL
- concentration at 1.5 hrs [1, 9]: 298 ng/mL
- concentration at 4 h [1, 9]: 36 ng/mL
- concentration at 6 h [1, 9]: 13 ng/mL
- concentration at 8 h [1, 9]: 7 ng/mL
- concentration at 10 h [1, 9]: 5 ng/mL
- AUC(0-t) [1, 10]: 2560 ng·h/mL
- Cmax [1, 10]: 3530 ng/mL
- Tmax [1, 10]: 13.8 min
- AUC(0-inf) [1, 10]: 2570 ng·h/mL
- concentration at 0.083 h ([1]; both sexes, human, plasma, Example 2, oral administration (140 mg), 0.083 hrs): 1530 ng/mL
- concentration at 0.17 h [1, 11]: 2760 ng/mL
- concentration at […] ([1]; both sexes, human, plasma, Example 2, oral administration (140 mg), 0.25 hrs): 3060 ng/mL
- concentration at 0.5 hrs [1, 11]: 2000 ng/mL
- concentration at 1 hrs [1, 11]: 762 ng/mL
- concentration at 1.5 hrs [1, 11]: 388 ng/mL
- concentration at 2 hrs ([1]; both sexes, human, plasma, Example 2, oral administration (140 mg), 2 hrs): 228 ng/mL
- concentration at 4 h [1, 11]: 63 ng/mL
- concentration at 6 h [1, 11]: 24 ng/mL
- concentration at 8 h [1, 11]: 13 ng/mL
- concentration at 10 h [1, 11]: 8 ng/mL
- Edaravone plasma concentration ([3]; Example 1, i.v. infusion (60 mg, 60 minutes)): 0 ng/mL
- Edaravone plasma concentration ([3]; Example 1, oral administration (140 mg)): 0 ng/mL
- systemic bioavailability (Fabs) ([3]; Example 1, oral compared to i.v. infusion): 79%
- time at which peak maximum concentrations are reached after administration ([3]; Example 1, orally administered): about 15 min
- rate at which edaravone dissolves in water [7]: increased substantially
Structure (SMILES): CC1=NN(c2ccccc2)C(=O)C1 [Edaravone, 3-methyl-1-phenyl-2-pyrazolin-5-one]
- contribution of gastrointestinal metabolism to the overall plasma metabolism profile ([1]; Example 2, oral in comparison to intravenous administration): No indication for a relevant contribution of gastrointestinal metabolism
- bioavailability of oral edaravone, of the i.v. delivery [2]: 38%
- plasma concentration ([4]; orally administered at 10 mg/kg): 243 ng/mL
- plasma concentration ([4]; orally administered at 30 mg/kg): 1314 ng/mL
- plasma concentration ([4]; orally administered at 100 mg/kg): 10999 ng/mL
- absolute bioavailability (Fabs) [5]: 5.23%
- cognitive deficits (escaping latency in platform testing, annulus crossing in probing test) (APP/PS1 mice): prominently attenuated
- Aβ levels in the brain (APP/PS1 mice; oral intake): significantly reduced
- Aβ plaque burden in the hippocampus and neocortex (APP/PS1 mice; oral intake): markedly alleviated
- oral bioavailability [6]: ~5.8%

- Ratio conjugate-to-parent drug (AUClast) [1, 12]: 1.4 ± 1.0
- Ratio conjugate-to-parent drug (AUClast) [1, 13]: 1.8 ± 0.8
Structure (SMILES): Cc1cc(O[C@@H]2O[C@H](C(=O)O)[C@@H](O)[C@H](O)[C@H]2O)n(-c2ccccc2)n1 [Glucuronide conjugate]

- Ratio conjugate-to-parent drug (AUClast) [1, 12]: 9.9 ± 2.7
- Ratio conjugate-to-parent drug (AUClast) [1, 13]: 9.5 ± 2.8
Structure (SMILES): Cc1cc(OS(=O)(=O)O)n(-c2ccccc2)n1 [Sulfate conjugate]
